Consider 106 compounds from a melting point compilation (Tetko et al.).

A word on the melting point: it is the temperature, or range, at which the solid turns liquid.

For `O=C(O)C1C2CCC(O2)C1C(=O)O` (stereo unspecified), the melting point amounted to 144 °C.

`O=C(O)[C@@H]1CSCN1C(=O)OCC1c2ccccc2-c2ccccc21`: the melting point lay in the range of 156 to 158 °C.

In turn, `N#Cc1c(F)cccc1Oc1ccc(F)cc1` showed a melting point of 73 to 74 °C. `CCCCC(O)(Cn1cncn1)c1ccc(Cl)cc1Cl` (stereo unspecified) came in with a melting point of 111 °C. As for `Clc1cc(Cl)c(OCC#CI)cc1Cl`, the figure is 114 °C; as for `COC(=O)c1cc(C)n(CN(Cn2nc(C(=O)OC)cc2C)c2ccccc2)n1`, 124 to 126 °C. `NNC(=O)c1ccc(Cl)cc1` registered a melting point of 164 °C. Under `Nc1ccccc1-c1c(-c2ccccc2)noc1-c1ccccc1` stands 185 °C; under `CC(C)[C@@H](C)CC[C@@H](C)[C@H]1CC[C@H]2C3=CC[C@H]4C[C@@H](O)CC[C@]4(C)[C@H]3CC[C@]12C`, 146 °C; under `O=C(O)COc1c(F)c(F)c(F)c(F)c1F`, 109 °C. Under `CC(C)c1ccc(NC(=O)N(C)C)cc1` stands 158 °C. In the case of `CCCCCCCCc1ccc(C(=O)CCC(=O)O)cc1`, the melting point lay within 91 to 93 °C. As for `CCOc1ccc(Cc2nc(C)cc3cc(OC)c(OC)cc23)cc1OC`, the figure is 124 °C; as for `c1ccc2c(c1)ccc1ccc3ccc4ccc5cccnc5c4c3c12`, 270 °C. `COc1cc2c(cc1OC)C13CCN4CC5=CCOC6CC(=O)N2C1C6C5CC43` (stereo unspecified): the melting point was found to be 178 °C. As for `COc1c(Br)ccc(C)c1C(=O)O`, the figure is 125 °C. Regarding `CC(=O)Nc1ccc(OC(F)(F)F)cc1`, the melting point lay within 115 to 117 °C. The compound `CC(C)(C)C(O)C(Cc1ccc(Cl)cc1Cl)n1cncn1` (stereo unspecified) registered a melting point of 148 °C. As for `CC(=O)C1(O)CCC2(C)C(CC(=O)C3C4CCC(=O)C4(C)CCC32)C1` (stereo unspecified), the figure is 185 to 191 °C; as for `NC(=O)C=CC(F)(F)F`, 147 to 150 °C. Under `Cn1nc(C(F)(F)F)c(-c2ccccc2)c1N` stands 85 to 89 °C; under `O=[N+]([O-])c1ccc(-c2cn3c(n2)sc2ccccc23)cc1`, 285 to 286 °C; under `CC(C)(C)c1ccc(N=C=S)cc1`, 42 °C. As for `Brc1cccc(-c2cc[nH]n2)c1`, the figure is 73 to 74 °C; as for `COC(=O)CCCCCCC(=O)OC`, -3.1 °C.

Compound `OC(CS)C(O)CS` (stereo unspecified) returned a melting point of 83 °C. Under `COc1ccc(/N=N/c2c(N)nn3c(C)cc(=O)[nH]c23)cc1` stands 276 °C; under `Cc1nc2sccn2c1C(=O)O`, 164 to 165 °C. As for `CC1NC(C)SC(C)S1` (stereo unspecified), the figure is 46 °C; as for `Nc1ccc(S(=O)(=O)Nc2ncccn2)cc1`, 254 °C; as for `CC(C)(C)OC(=O)c1cc2cc3c4c(c2oc1=O)CCCN4CCC3`, 171 °C. Turning to `OCCN(CCO)CCc1ccc(CSc2ccccc2)cc1`, the melting point turned out to be 80 °C. In the case of `CC(=O)OC1CC[C@H]2[C@@H]3CCC4CC(=O)CC[C@]4(C)[C@H]3CC[C@]12C` (stereo partly specified), the melting point was 146 °C. Compound `O=[N+]([O-])c1cc(Br)ccc1O` yielded a melting point of 92 °C.

Compound `Cc1ccc(Br)c(C)c1` showed a melting point of -17 °C.

Consider `COc1ccc(-c2ocnc2C(=O)O)cc1`, for which the melting point was 147 to 151 °C. `CC(C)(C(N)=O)n1nc2ccccc2n1` showed a melting point of 174 °C. For the compound `CCc1c(C)[nH]c2ccc(N(C)C)cc12`, the melting point stood at 100 °C.

`NCCCO` returned a melting point of 11 °C. `c1ccc2c(c1)CC1(OCCO1)c1ccccc1CC21OCCO1` gave a melting point of 143 to 144 °C. As for `CCCCCCCCCCCCCCCCCC(N)=O`, the figure is 109 °C; as for `CCOC(=O)c1[nH]c(C)c(C(C)=O)c1C`, 146 to 147 °C; as for `CC(=O)c1cccc(N=C=S)c1`, 26 to 28 °C. In turn, `CC(C)C1CCC(Cc2ccc(Cl)cc2)C1(O)Cn1cncn1` (stereo unspecified) gave a melting point of 89 °C. As for `Nc1ccc(-c2ccc(Cl)cc2)cc1`, the figure is 134 °C.

`CC(=O)C(C#N)c1ccccc1[N+](=O)[O-]` (stereo unspecified) returned a melting point of 72 °C. Under `CC1(C)CCC(Cc2ccc(Cl)cc2)C1(O)Cn1cncn1` (stereo unspecified) stands 112 °C; under `Nc1cccc2c(N)cccc12`, 190 °C; under `COc1ccc(C(C)=CC(=O)O)c(OC)c1`, 149 °C. In turn, `N#C/C(=C/c1cccnc1)c1nc(-c2ccccc2)cs1` registered a melting point of 164 °C. `COC(=O)c1ccccc1SCC#N` displayed a melting point of 121 to 124 °C.

With `O=C(OCc1ccccc1)c1cccnc1`, the melting point worked out at 22 °C. Consider `O=[N+]([O-])c1cccc(F)c1O`, for which the melting point came out at 92.5 °C. For the compound `CCC(C)(N)P(=O)(O)O` (stereo unspecified), the melting point was in the range of 268 to 272 °C. `O=[N+]([O-])c1cc(C(F)(F)F)ccc1N1CCCCC1` yielded a melting point of 48 to 50 °C.

Consider `CCC(=N\NC(N)=O)/C(C)=N\NC(N)=O`, for which the melting point is 244 to 245 °C. Regarding `CCn1c(C)nc2ccccc21`, the melting point is 51 °C. Under `CCOC(=O)c1c(Cl)cc(C)cc1N1CCCC1` stands 78 to 79 °C; under `Cc1ccc(C2(C(=O)O)CC2)cc1`, 109 to 114 °C; under `c1cc2c(c3c1CCCC3)CCCC2`, 16.7 °C. Under `Cc1c2ccccc2cc2ccc3ccccc3c12` stands 138 °C. Under `Cc1cncc(C#N)c1` stands 84 °C. On to `O=C1OC(=O)c2cc3ccccc3cc21`, for which the melting point amounted to 249 °C. As for `CC12CCC(C(C(O)c3ccccc3)OC1=O)C2(C)C` (stereo unspecified), the figure is 156 °C; as for `Cc1ccc(-c2ccc(S(=O)(=O)Cl)cc2)cc1`, 107 to 108 °C; as for `N#Cc1sccc1Br`, 49 °C.

Regarding `C=C1CC(=O)O1`, the melting point was -6.5 °C. As for `COc1ccc(C2Cc3ccccc3C(C)(O)O2)cc1` (stereo unspecified), the figure is 102 °C; as for `NC(=S)N1CCCCC1`, 127 to 129 °C; as for `Nc1c(C=Cc2ccccc2)ccc2c1C(=O)c1ccccc1C2=O`, 214 °C. As for `Cc1ccc(C(N)C(N)c2ccc(C)cc2)cc1` (stereo unspecified), the melting point was in the range of 113 to 117 °C. Under `O=C(CO)[C@@H](O)[C@@H](O)[C@H](O)[C@H](O)CO` stands 151 °C; under `CCOC(=O)C(C#N)=Cc1ccccc1`, 51 °C; under `O=C1c2ccccc2C(=O)c2c1ccc(O)c2O`, 287 to 289 °C. Compound `O=c1c(O)c(-c2ccc(O)c(O)c2)oc2cc(O)cc(O)c12` showed a melting point of 316 °C. As for `CC(C)Cc1ccc(C(C)C(=O)O)cc1` (stereo unspecified), the figure is 75 °C.

As to `Cc1c(C)c(CBr)c(CBr)c(CBr)c1CBr`, the melting point is 205 °C. Under `O=C(Cc1cc(CC(=O)Nc2ccccc2)c([N+](=O)[O-])cc1[N+](=O)[O-])Nc1ccccc1` stands 267 °C; under `CC(O[S+]([O-])C(C)(C)C)C(O)(c1ccccc1)c1ccccc1` (stereo unspecified), 135 to 137 °C. As for `CCOC(=O)c1cc2c(s1)Sc1[nH]c(C(=O)OCC)c(N)c1C2c1ccccc1` (stereo unspecified), the figure is 133 °C; as for `COC(=O)c1ccccc1CS(=O)(=O)NC(=O)Nc1nc(OC)cc(OC)n1`, 187 °C. `COc1cc(Cl)c(Cl)c(Cl)c1OC` yielded a melting point of 66 °C. In turn, `NC(=O)c1ccc(F)cc1F` came in with a melting point of 161 °C. Turning to `Cc1cc(N=C2c3ccccc3CN2c2cc(C)on2)no1`, the melting point is 191 °C. `O=C(OCC(=O)N1CCC1C(=O)O)c1ccccc1` (stereo unspecified) showed a melting point of 150 °C.

Consider `CC1CCCC=CC2CC(O)CC2C(O)C=CC(=O)O1` (stereo unspecified), for which the melting point was in the range of 201 to 205 °C.

For the compound `CC(=O)N1c2ccccc2CC1c1ccccc1` (stereo unspecified), the melting point was 129 °C. As for `C[Si](C)(C)Oc1ccccc1`, the figure is -55 °C; as for `S=C(Nc1cccc2ccccc12)Nc1cccc2ccccc12`, 208 °C. Under `Nc1nn2c(C(F)(F)F)cc(-c3cccs3)nc2c1/N=N/c1ccc(C(=O)O)cc1` stands 184 °C; under `CCOC(=O)CCC(C)C1CCC2C3C(=O)CC4CC(=O)CCC4(C)C3CC(=O)C12C` (stereo unspecified), 222 °C; under `CCC1(c2ccccc2)C(=O)N(COC)C(=O)N(COC)C1=O`, 117 °C. Compound `CC(C)(C)OC(=O)NC(CI)C(=O)OCc1ccccc1` (stereo unspecified) gave a melting point of 81 °C. `Clc1nccc(-c2ccco2)n1` yielded a melting point of 81.5 to 82.5 °C. As for `Cc1cccnc1C`, the figure is -17 °C.

Regarding `CC(C)(C)OC(=O)N[C@H](CO)Cc1ccccc1`, the melting point amounted to 97 °C. `CCOC(=O)c1nn(-c2ccc(C)cc2)c(C)c1C(=O)C1=NOC2C(=O)N(c3cc(Cl)ccc3Cl)C(=O)C12` (stereo unspecified) returned a melting point of 225 °C. Compound `CSc1ncc(C(=O)O)n1Cc1ccccc1` registered a melting point of 178 to 179 °C. Compound `CCCCCCCCCCCCCCCCOP(=O)(O)OCCCCCCCCCCCCCCCC` yielded a melting point of 74.5 °C. The compound `CC(O)Cn1c(=O)c2c(ncn2C)n(C)c1=O` (stereo unspecified) gave a melting point of 141 °C. Take `NC(=S)N1CCOCC1`: the melting point is 153 to 156 °C. On to `Cn1c(=O)c2c(ncn2CCO)n(C)c1=O`, for which the melting point was determined as 158 °C. Under `CCOC(=O)Cc1ccc(Br)cc1` stands 30 °C; under `C=CCSc1sc(C(=O)OCC)c2c1C(=O)CCC2`, 57 to 60 °C. Under `CC(=O)Nc1ccc(C#N)cc1OC(F)(F)F` stands 118 to 120 °C. In turn, `CC1C(NC(=O)C(=NOC(C)(C)C(=O)O)c2csc(N)n2)C(=O)N1S(=O)(=O)O` (stereo unspecified) registered a melting point of 277 °C.
